Assay results reported in article PMC9501899 (Journal of the American Chemical Society, 2022).
Like-named read-outs stand apart in the source and are kept apart here.

Columns and labels:
pRab10 = test: cells; format: cell-based, human; details: for EC50: Homo sapiens, PBMC, PBMCs, read-out: EC50s (pRab10)
From the text: (§1) The relative LRRK2 protein and pRab10 levels were obtained by quantifying the ratios of total LRRK2/GAPDH or Rab10-pThr73/total Rab10, respectively, and the ratios were normalized to the DMSO-treated samples. The relative LRRK2 and pRab10 protein levels were plotted against the compound concentration and fitted against “nonlinear regression, one site-fit log IC50” in GraphPad to obtain the DC50 and EC50 values. Data points are presented as mean ± standard error of the mean (SEM) from three biological independent replicates. […] The relative LRRK2 protein and pRab10 levels were obtained by quantifying the ratios of total LRRK2/ GAPDH or Rab10-pThr73/total Rab10, respectively, and the ratios were normalized to the DMSO-treated samples. The relative LRRK2 and pRab10 protein levels were plotted against the treatment time and were fitted against “nonlinear regression, one-phase decay” in GraphPad to obtain the half-life (T1/2) values. Data points are presented as mean ± SEM from three biological independent replicates. […] The relative LRRK2 levels were obtained by quantifying the ratios of total LRRK2/tubulin and normalized to the DMSO-treated samples. The relative LRRK2 levels were plotted against the compound concentration and fitted against “nonlinear regression, one site-fit log IC50” in GraphPad to obtain the DC50 values.
(§2) PBMC cells were separated from human blood from healthy volunteer donors following the existing protocol[82] and pelleted by centrifugation at 1000g for 2 min. The supernatant was discarded, and the PBMC pellet was resuspended in PBS containing 2% FBS for washing. The suspension was centrifuged at 1000g for 2 min again, and the PBMC pellet was resuspended in Roswell Park Memorial Institute (RPMI)-1640 (Gibco) media supplemented with 10% FBS. The cells were then seeded into six-well plates and treated with testing compounds at indicated concentrations and time periods. After treatment, the cells were collected into a 2 mL Eppendorf tube and centrifuged at 500g for 2 min to pellet the cells, the supernatant was discarded, and the pellet was resuspended in 1 mL PBS and centrifuged at 500g for 2 min again. The PBMC pellet was lysed with 60 μL of lysis buffer containing 50 mM tris–HCl, pH 7.5, 1% (v/v) Triton X-100, 1 mM ethylene glycol-bis(β-aminoethyl ether)-N,N,N′,N′-tetraacetic acid (EGTA), 1 mM sodium orthovanadate, 50 mM NaF, 0.1% (v/v) 2-mercaptoethanol, 10 mM 2-glycerophosphate, 5 mM sodium pyrophosphate, 0.1 μg/mL microcystin-LR (Enzo Life Sciences), 270 mM sucrose, and 0.5 mM diisopropyl fluorophosphate (DIFP) (Sigma-Aldrich, Cat# D0879) in addition to a complete EDTA-free protease inhibitor cocktail (Sigma-Aldrich Cat # 11836170001). DIFP is highly toxic and must be prepared in a fume hood to a stock solution of 0.5 M in isopropanol. The lysed cells were then centrifuged at 1500g for 15 min at 0 °C. The supernatants were collected for analysis by quantitative immunoblotting. For long-term storage, the supernatant was flash-frozen and stored at −80 °C. Protein concentrations of cell lysates were determined using the Pierce BCA Protein Assay Kit (Thermo Fisher).
Cell lysates containing a quarter of a volume of 4× NuPAGE LDS sample buffer (NP0007) supplemented with 5% β-mercaptoethanol were heated at 95 °C for 5 min. […]

human LRRK2 = target: T1, human LRRK2 (Homo sapiens, UniProt Q5S007); test: LRRK2 degradation in peripheral blood mononuclear cells (PBMCs); format: cell-based
T1 construct: endogenous in cells; host or cells: human PBMCs from healthy donors
From the text: as §1, §2
Cell lysates containing a quarter of a volume of 4× NuPAGE LDS sample buffer (NP0007) supplemented with 5% β-mercaptoethanol were heated at 95 °C for 5 min. Samples (15–20 μg) were loaded onto precast 4–12% bis–tris midi 20W or 26W gels (Thermo Fisher Scientific, Cat# WG1402BOX or WG1403BOX) and resolved at 130 V for 2 h with a NuPAGE MOPS SDS running buffer (Thermo Fisher Scientific Cat# NP0001-02). Proteins were electrophoretically transferred onto a 0.45 μm nitrocellulose membrane (GE Healthcare, Amersham Protran Supported […] NC) at 90 V for 90 min on ice in a transfer buffer (48 mM tris base and 39 mM glycine supplemented with 20% methanol).

T1 sequence (Q5S007 whole entry): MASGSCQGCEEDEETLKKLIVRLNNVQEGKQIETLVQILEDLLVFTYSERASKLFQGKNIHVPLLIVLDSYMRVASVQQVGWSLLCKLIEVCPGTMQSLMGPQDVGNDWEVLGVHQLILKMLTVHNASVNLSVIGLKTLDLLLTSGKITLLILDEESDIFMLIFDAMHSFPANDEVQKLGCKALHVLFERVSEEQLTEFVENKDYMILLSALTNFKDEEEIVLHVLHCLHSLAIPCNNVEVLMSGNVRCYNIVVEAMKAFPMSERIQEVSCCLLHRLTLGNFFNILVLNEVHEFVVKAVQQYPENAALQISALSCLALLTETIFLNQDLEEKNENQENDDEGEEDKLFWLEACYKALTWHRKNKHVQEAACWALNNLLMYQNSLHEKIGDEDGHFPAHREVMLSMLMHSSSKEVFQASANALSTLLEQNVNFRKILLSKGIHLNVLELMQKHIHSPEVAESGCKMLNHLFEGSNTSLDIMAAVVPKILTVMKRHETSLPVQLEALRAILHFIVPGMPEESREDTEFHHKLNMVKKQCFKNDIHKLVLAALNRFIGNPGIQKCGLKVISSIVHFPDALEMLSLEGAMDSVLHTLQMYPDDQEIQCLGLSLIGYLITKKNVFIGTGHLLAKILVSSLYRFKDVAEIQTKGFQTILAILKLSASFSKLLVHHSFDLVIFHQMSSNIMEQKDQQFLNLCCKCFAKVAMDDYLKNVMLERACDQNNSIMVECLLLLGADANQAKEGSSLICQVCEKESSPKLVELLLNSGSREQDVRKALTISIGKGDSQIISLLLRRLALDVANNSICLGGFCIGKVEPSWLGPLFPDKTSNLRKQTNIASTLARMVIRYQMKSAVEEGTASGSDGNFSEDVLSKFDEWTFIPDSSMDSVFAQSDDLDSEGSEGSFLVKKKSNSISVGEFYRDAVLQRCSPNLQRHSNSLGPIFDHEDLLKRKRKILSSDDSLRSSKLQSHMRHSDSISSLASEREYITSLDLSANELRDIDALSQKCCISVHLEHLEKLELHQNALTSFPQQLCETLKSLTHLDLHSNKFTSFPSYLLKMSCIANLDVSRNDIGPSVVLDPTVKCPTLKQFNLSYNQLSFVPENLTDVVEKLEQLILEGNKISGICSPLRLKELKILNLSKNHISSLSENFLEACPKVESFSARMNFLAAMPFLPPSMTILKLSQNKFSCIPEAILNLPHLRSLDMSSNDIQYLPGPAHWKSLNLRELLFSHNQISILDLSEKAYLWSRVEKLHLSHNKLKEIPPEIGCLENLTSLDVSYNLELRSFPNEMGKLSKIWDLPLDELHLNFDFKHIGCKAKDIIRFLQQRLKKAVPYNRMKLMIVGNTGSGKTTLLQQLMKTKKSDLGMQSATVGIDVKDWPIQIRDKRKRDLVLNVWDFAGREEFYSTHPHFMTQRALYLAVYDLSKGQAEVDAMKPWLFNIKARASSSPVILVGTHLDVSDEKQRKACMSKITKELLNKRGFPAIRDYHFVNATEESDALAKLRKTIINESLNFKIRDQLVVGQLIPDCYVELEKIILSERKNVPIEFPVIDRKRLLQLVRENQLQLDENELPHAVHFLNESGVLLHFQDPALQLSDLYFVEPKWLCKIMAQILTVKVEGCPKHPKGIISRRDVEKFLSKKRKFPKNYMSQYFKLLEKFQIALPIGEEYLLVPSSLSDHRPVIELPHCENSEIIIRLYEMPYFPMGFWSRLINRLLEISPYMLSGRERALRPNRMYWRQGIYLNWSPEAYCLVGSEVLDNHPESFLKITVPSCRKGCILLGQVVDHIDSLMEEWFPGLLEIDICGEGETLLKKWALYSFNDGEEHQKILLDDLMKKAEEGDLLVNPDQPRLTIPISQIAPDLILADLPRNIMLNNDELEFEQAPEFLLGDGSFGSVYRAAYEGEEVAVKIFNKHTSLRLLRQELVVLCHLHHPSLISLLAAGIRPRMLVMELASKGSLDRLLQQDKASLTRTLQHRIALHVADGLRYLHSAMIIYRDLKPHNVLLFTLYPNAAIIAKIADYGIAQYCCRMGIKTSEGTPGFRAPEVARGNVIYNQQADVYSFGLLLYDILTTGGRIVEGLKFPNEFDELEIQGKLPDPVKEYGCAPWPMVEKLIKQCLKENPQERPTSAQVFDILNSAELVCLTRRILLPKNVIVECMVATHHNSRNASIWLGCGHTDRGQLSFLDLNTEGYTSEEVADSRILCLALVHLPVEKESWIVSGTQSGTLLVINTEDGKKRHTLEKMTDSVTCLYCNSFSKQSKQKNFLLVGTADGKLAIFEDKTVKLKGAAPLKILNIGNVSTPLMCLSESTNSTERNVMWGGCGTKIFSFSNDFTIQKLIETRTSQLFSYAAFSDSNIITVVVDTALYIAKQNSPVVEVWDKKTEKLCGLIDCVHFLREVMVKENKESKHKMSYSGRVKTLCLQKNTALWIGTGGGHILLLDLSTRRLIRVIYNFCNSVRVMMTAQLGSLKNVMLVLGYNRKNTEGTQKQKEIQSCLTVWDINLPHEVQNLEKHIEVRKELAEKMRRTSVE

SMILES	EC50 (pRab10; 4 h) [nM]	EC50 (pRab10; 24 h) [nM]	DC50,4h (LRRK2) (human LRRK2; 4 h)	Dmax (LRRK2) (human LRRK2; 4 h)	DC50,24h (LRRK2) (human LRRK2; 24 h)	Dmax (LRRK2) (human LRRK2; 24 h)	pRab10 T1/2 (pRab10; human, pbmc, 300 nM) [h]	DC50 (human LRRK2; 4 h, read-out: DC50,4h (LRRK2)) [nM]	DC50 (human LRRK2; 24 h, read-out: DC50,24h (LRRK2)) [nM]
CNc1nc(Nc2ccc(C(=O)N3CCN(C[C@H]4CC[C@H](CSC(C)(C)[C@H](NC(=O)C5(F)CC5)C(=O)N5C[C@@H](O)C[C@H]5C(=O)NCc5ccc(-c6scnc6C)cc5)CC4)CC3)cc2OC)ncc1Cl [cis-XL01126, (2S,4S)-1-((R)-3-((((1R,4R)-4-((4-(4-((5-Chloro-4-(methylamino)pyrimidin-2-yl)amino)-3-methoxybenzoyl)piperazin-1-yl)methyl)cyclohexyl)methyl)thio)-2-(1-fluorocyclopropane-1-carboxamido)-3-methylbutanoyl)-4-hydroxy-N-(4-(4-methylthiazol-5-yl)benzyl)pyrrolidine-2-carboxamide]	~3000	705	NDO	NDO	NDO	NDO			
CNc1nc(Nc2ccc(C(=O)N3CCN(C[C@H]4CC[C@H](CSC(C)(C)[C@H](NC(=O)C5(F)CC5)C(=O)N5C[C@H](O)CC5C(=O)NCc5ccc(-c6scnc6C)cc5)CC4)CC3)cc2OC)ncc1Cl (stereo partly drawn) [XL01126, (2S,4R)-1-((R)-3-((((1R,4R)-4-((4-(4-((5-Chloro-4-(methylamino)pyrimidin-2-yl)amino)-3-methoxybenzoyl)piperazin-1-yl)methyl)cyclohexyl)methyl)thio)-2-(1-fluorocyclopropane-1-carboxamido)-3-methylbutanoyl)-4-hydroxy-N-(4-(4-methylthiazol-5-yl)benzyl)pyrrolidine-2-carboxamide]	69	20					0.38	72	17
